Measured values from article PMC6356585 (Viruses, 2018).
Where a name gives a salt, the structure may show the parent alone. Read-outs that look alike come from different tables or passages of the source. Residues, ends and D or L forms follow the SMILES beside them. *: point of attachment. Cbz = O=C(OCc1ccccc1)*

Assays:
C6/36 cells = type: cell-based, Ae. albopictus
Vero cells = test: Cell viability (CellTiter-Glo) of Vero cells; type: cell-based
ZIKV SPH = test: Autophagy compound library screen, ZIKV SPH titer (TCID50) in C6/36 cells; type: cell-based, Zika virus; conditions: 10 µM compound, MOI 0.1, 96 h, TCID50, ± SEM, three independent trials; for activity at 10 µM: Zika virus, C6/36, read-out: ZIKV SPH Relative Titer in C6/36 Cells
[1] = 10 µM compound, 96 h, CellTiter-Glo, ± SEM, three independent trials
[2] = 10 µM compound, 40 h, CellTiter-Glo, ± SEM, three independent trials

SMILES	C6/36 Viability (C6/36 cells; [1])	Vero Viability (Vero cells; 10 µM)	activity at 10 µM (ZIKV SPH) [%]	Vero Viability (Vero cells; [2])	also measured
O=CC[C@@H](O)[C@H](O)[C@H](O)CO [2-Deoxyglucose]	73 ± 1% of untreated control	98.7 ± 0.9% of untreated control	109 ± 61.2	–	–
C[C@H]1O[C@@H](n2cnc3c(N)ncnc32)C[C@@H]1O [2′,5′-Dideoxyadenosine]	118 ± 15% of untreated control	–	317 ± 162	95.0 ± 1.5% of untreated control	–
Cn1cnc(N)c2ncnc1-2 [3-Methyladenine]	120 ± 15.6% of untreated control	90.7 ± 1.8% of untreated control	155 ± 41	–	–
CO/C1=C\C(C)=C\[C@@H](C)[C@@H](O)[C@@H](C)C/C(C)=C/C=C/[C@H](OC)[C@@H]([C@@H](C)[C@@H](O)[C@H](C)[C@@]2(O)C[C@@H](O)[C@H](C)[C@@H](C(C)C)O2)OC1=O [Bafilomycin A1]	36 ± 6.1% of untreated control	–	0	55.7 ± 9.5% of untreated control	–
C[C@H]1CCC/C=C/[C@@H]2C[C@H](O)C[C@H]2[C@H](O)/C=C/C(=O)O1 [Brefeldin A]	–	–	124 ± 25	–	C6/36 Viability (C6/36 cells; 10 µM compound, 96 h, CellTiter-Glo, ± SEM, three independent trials, 10 µM): 91 ± 8.4% of untreated control; C6/36 Viability (C6/36 cells; 10 µM compound, 96 h, CellTiter-Glo, ± SEM, three independent trials, listed as brefeldin A, 10 µM): did not alter viral titers or cell viability; Vero Viability (Vero cells; 10 µM compound, 40 h, CellTiter-Glo, ± SEM, three independent trials, 10 µM): 17.0 ± 2.1% of untreated control; Vero Viability (Vero cells; 10 µM compound, 40 h, CellTiter-Glo, ± SEM, three independent trials, listed as brefeldin A, 10 µM): toxic; ZIKV SPH Relative Titer in C6/36 Cells (ZIKV SPH): did not alter viral titers
Cn1c(=O)c2c(ncn2C)n(C)c1=O [Caffeine]	83 ± 4.6% of untreated control	–	138 ± 37.7	104.7 ± 8.6% of untreated control	–
COc1cc(CNC(=O)CCCC/C=C/C(C)C)ccc1O [Capsaicin]	66 ± 7.2% of untreated control	–	48.1 ± 12	91.7 ± 2.4% of untreated control	–
CCN(CC)CCCC(C)Nc1ccnc2cc(Cl)ccc12 (stereo not shown) [Chloroquine]	81 ± 17.1% of untreated control	–	126 ± 44.8	89.7 ± 4.4% of untreated control	–
Clc1cccc(Cl)c1N=C1NCCN1 [Clonidine·HCl]	–	97.7 ± 2.6% of untreated control	95.9 ± 53.4	–	C6/36 Viability (C6/36 cells; 10 µM): 69 ± 5.4% of untreated control
CCCCC[C@H](O)CC(=O)CCc1ccc(O)c(OC)c1 [Compound 6-Gingerol, 6-Gingerol]	55 ± 11% of untreated control	100.0 ± 2.5% of untreated control	109 ± 9.3	–	–
COc1cc(/C=C/C(=O)CC(=O)/C=C/c2ccc(O)c(OC)c2)ccc1O [Curcumin]	3 ± 0.7% of untreated control	75.3 ± 11.3% of untreated control	0.3 ± 0.2	–	–
C[C@@H]1C[C@@H]([C@H](O)CC2CC(=O)NC(=O)C2)C(=O)[C@@H](C)C1 [Cycloheximide]	24 ± 3.5% of untreated control	–	0	37.3 ± 6.2% of untreated control	–
O=C(/C=C/c1cccnc1)NCCCCC1CCN(C(=O)c2ccccc2)CC1 [FK-866]	–	32.7 ± 2.7% of untreated control	92.7 ± 32.4	–	C6/36 Viability (C6/36 cells; 10 µM): 48 ± 5.5% of untreated control
C=C[C@@]1(C)CC(=O)[C@]2(O)[C@@]3(C)[C@@H](O)CCC(C)(C)[C@@H]3[C@H](O)[C@H](OC(C)=O)[C@@]2(C)O1 [Forskolin]	–	74.7 ± 3.7% of untreated control	302 ± 18.3	–	C6/36 Viability (C6/36 cells; 10 µM): 94 ± 12% of untreated control
COC1=C2C[C@@H](C)C[C@H](OC)[C@H](O)[C@@H](C)/C=C(\C)[C@H](OC(N)=O)[C@@H](OC)/C=C\C=C(/C)C(=O)NC(=CC1=O)C2=O [Geldanamycin]	45 ± 5.8% of untreated control	61.3 ± 5.7% of untreated control	25.8 ± 14.5	–	–
N[C@H]1C(O)O[C@H](CO)[C@@H](O)[C@@H]1O (stereo partly shown) [Glucosamine HCl]	88 ± 5.2% of untreated control	99.3 ± 1.9% of untreated control	242 ± 45.8	–	–
Cc1ccc(NC(=O)c2ccc(CN3CCN(C)CC3)cc2)cc1Nc1nccc(-c2cccnc2)n1 [Imatinib mesylate]	19 ± 5.4% of untreated control	–	5.3 ± 2.2	–	–

SMILES	C6/36 Viability (C6/36 cells; [1])	Vero Viability (Vero cells; 10 µM)	activity at 10 µM (ZIKV SPH) [%]	Vero Viability (Vero cells; [2])	also measured
CC(C)Cn1cnc2c(N)nc3ccccc3c21 [Imiquimod]	37 ± 8.1% of untreated control	–	72.5 ± 18.4	91.3 ± 1.2% of untreated control	–
O=c1cc(N2CCOCC2)oc2c(-c3ccccc3)cccc12 [LY294002]	97 ± 17.2% of untreated control	–	548 ± 221	56.0 ± 6% of untreated control	–
CC(C)C[C@@H](C=O)NC(=O)[C@H](CC(C)C)NC(=O)[C@H](CC(C)C)NC(=O)OCc1ccccc1 [MG132] (Cbz-Leu-Leu-Leu-aldehyde)	31 ± 5.7% of untreated control	10.7 ± 2.8% of untreated control	9.5 ± 7.1	–	–
CN(C)C(=N)N=C(N)N [Metformin·HCl]	64 ± 10.3% of untreated control	92.3 ± 4.2% of untreated control	–	–	–
Nc1cc(N2CCCCC2)nc(N)[n+]1[O-] [Minoxidil]	72 ± 2.6% of untreated control	96.3 ± 3.2% of untreated control	146 ± 16.6	–	–
O=C(Nc1ccc([N+](=O)[O-])cc1Cl)c1cc(Cl)ccc1O [Niclosamide]	2 ± 0.3% of untreated control	29.7 ± 3.8% of untreated control	0.1	–	–
COCCOC(=O)C1=C(C)NC(C)=C(C(=O)OC(C)C)C1c1cccc([N+](=O)[O-])c1 (stereo not shown) [Nimodipine]	41 ± 8.4% of untreated control	92.0 ± 1.5% of untreated control	26.9 ± 13.6	–	–
CCOC(=O)C1=C(C)NC(C)=C(C(=O)OC)C1c1cccc([N+](=O)[O-])c1 (stereo not shown) [Nitrendipine]	62 ± 10.5% of untreated control	–	220 ± 44.4	88.7 ± 1.9% of untreated control	–
Oc1cccc(-c2nc(N3CCOCC3)c3oc4ncccc4c3n2)c1 [PI-103]	–	43.7 ± 6.4% of untreated control	46.2 ± 13.3	–	C6/36 Viability (C6/36 cells; 10 µM): 39 ± 8.9% of untreated control
O=c1[nH]c2ccccc2n1C1CCN(CCCC(c2ccc(F)cc2)c2ccc(F)cc2)CC1 [Pimozide]	49 ± 3.6% of untreated control	90.0 ± 5.7% of untreated control	109 ± 22	–	–
CC1=CC(=O)c2c(O)cccc2C1=O [Plumbagin]	–	2.0 ± 0% of untreated control	21.4 ± 17.5	–	C6/36 Viability (C6/36 cells; 10 µM): 49 ± 1.5% of untreated control
Oc1ccc(/C=C/c2cc(O)cc(O)c2)cc1 [Resveratrol]	81 ± 7.5% of untreated control	87.3 ± 2.3% of untreated control	155 ± 62	–	–
C1COC(NC(C2CC2)C2CC2)=N1 [Rilmenidine]	–	97.0 ± 2% of untreated control	161 ± 58.1	–	C6/36 Viability (C6/36 cells; 10 µM): 79 ± 8.3% of untreated control
c1ccc2c(-c3ccncc3)c[nH]c2c1 [Rockout]	–	87.7 ± 3.8% of untreated control	96.2 ± 44.2	–	C6/36 Viability (C6/36 cells; 10 µM): 76 ± 5.2% of untreated control
COc1ccc(C2CNC(=O)C2)cc1OC1CCCC1 (stereo not shown) [Rolipram]	–	91.0 ± 3.2% of untreated control	215 ± 74.8	–	C6/36 Viability (C6/36 cells; 10 µM): 127 ± 12.1% of untreated control
C=C(C)[C@H]1Cc2c(ccc3c2O[C@@H]2COc4cc(OC)c(OC)cc4[C@@H]2C3=O)O1 [Rotenone]	17 ± 5.8% of untreated control	–	0.1 ± 0.1	61.3 ± 7.7% of untreated control	–
CC(=O)c1c(O)c(C)c(O)c(Cc2c(O)c3c(c(C(=O)/C=C/c4ccccc4)c2O)OC(C)(C)C=C3)c1O [Rottlerin]	40 ± 8.4% of untreated control	–	30.3 ± 16.9	80.7 ± 8.5% of untreated control	–
